Results published in PubChem BioAssay (NCI).
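Protocol summary: plate cells (96-well), add compound at 5 concentrations, incubate 48 h, interpolate endpoints linearly. The concentration for 50% growth inhibition is given as GI50. Definition used: TGI = concentration required for complete inhibition of growth.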

What was measured:
Assay in all cases: NCI tumour cell line growth inhibition, 48 h
[1] = test system: SNB-75 CNS
[2] = test system: SNB-19 CNS
[3] = test system: SF-268 CNS
[4] = test system: CAKI-1 renal
[5] = test system: HCC-2998 colon
[6] = test system: BT-549 breast
[7] = test system: COLO 205 colon
[8] = test system: SF-295 CNS
[9] = test system: IGROV1 ovarian
[10] = test system: HT29 colon
[11] = test system: EKVX NSCLC
[12] = test system: OVCAR-3 ovarian
[13] = test system: HCT-15 colon
[14] = test system: HOP-92 NSCLC
[15] = test system: M14 melanoma
[16] = test system: T-47D breast
[17] = test system: DU-145 prostate
[18] = test system: HCT-116 colon
[19] = test system: K-562 leukemia
[20] = test system: UACC-62 melanoma
[21] = test system: SK-OV-3 ovarian
[22] = test system: ACHN renal
[23] = test system: KM12 colon
[24] = test system: NCI-H522 lung
[25] = test system: OVCAR-5 ovarian
[26] = test system: NCI-H460 lung
[27] = test system: U251 CNS

O=C(Nc1ccccc1F)c1ccc(NC2=C(Cl)C(=O)N(Cc3ccccc3)C2=O)cc1
GI50 [1]: 16.5 µM
TGI [1]: 30 µM
GI50 [2]: 11.6 µM
TGI [2]: 23.8 µM
GI50 [3]: 2 µM
TGI [3]: 5.2 µM
GI50 [4]: 1.7 µM
TGI [4]: 3.25 µM
GI50 [5]: 15.7 µM
TGI [5]: 29.1 µM
GI50 [6]: 3.13 µM
TGI [6]: 9.62 µM
GI50 [7]: 9.03 µM
TGI [7]: 21 µM
GI50 [8]: 10.7 µM
TGI [8]: 22.6 µM
GI50 [9]: 1.16 µM
TGI [9]: 2.94 µM
GI50 [10]: 4.18 µM
TGI [10]: 13.5 µM
GI50 [11]: 16.6 µM
TGI [11]: 30.2 µM
GI50 [12]: 1.68 µM
TGI [12]: 3.05 µM
GI50 [13]: 3.38 µM
TGI [13]: 12.3 µM
GI50 [14]: 1.91 µM
TGI [14]: 5.03 µM
GI50 [15]: 4.02 µM
TGI [15]: 17 µM
GI50 [16]: 3.06 µM
TGI [16]: 8.01 µM
GI50 [17]: 2.11 µM
TGI [17]: 4.34 µM
GI50 [18]: 8.4 µM
TGI [18]: 20.6 µM
GI50 [19]: 2.68 µM
TGI [19]: 12.1 µM
GI50 [20]: 4.39 µM
TGI [20]: 15.9 µM
GI50 [21]: 17.6 µM
TGI [21]: 31.4 µM
GI50 [22]: 15.1 µM
TGI [22]: 28.4 µM
GI50 [23]: 14.8 µM
TGI [23]: 34.3 µM
GI50 [24]: 2.21 µM
TGI [24]: 5.34 µM
GI50 [25]: 16.6 µM
TGI [25]: 30.2 µM
GI50 [26]: 6.6 µM
TGI [26]: 19.3 µM
GI50 [27]: 13.3 µM
TGI [27]: 26 µM
